Where “and” joins values, the source holds several entries; their conditions need not be identical. Equal values may be shown once.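 Results reflect a 48-hour exposure of cells in 96-well plates to compound at five concentrations. Here, GI50 denotes the concentration required for 50% inhibition of growth. The concentration for full growth arrest is given as TGI.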
How the values were obtained:
Assay in all cases: NCI anticancer screen, dose series, 48 h
HCT-116 colon = tested on: HCT-116 colon
K-562 leukemia = tested on: K-562 leukemia
LOX IMVI melanoma = tested on: LOX IMVI melanoma
MDA-MB-231 breast = tested on: MDA-MB-231 breast
NCI-H522 lung = tested on: NCI-H522 lung
OVCAR-3 ovarian = tested on: OVCAR-3 ovarian
SF-268 CNS = tested on: SF-268 CNS
SF-539 CNS = tested on: SF-539 CNS
SK-MEL-28 melanoma = tested on: SK-MEL-28 melanoma
SN12C renal = tested on: SN12C renal
SNB-75 CNS = tested on: SNB-75 CNS

SMILES | TGI (HCT-116 colon) | TGI (K-562 leukemia) [µM] | TGI (LOX IMVI melanoma) | TGI (MDA-MB-231 breast) [µM] | TGI (NCI-H522 lung) [µM] | TGI (OVCAR-3 ovarian) | TGI (SF-268 CNS) [µM] | TGI (SF-539 CNS) | TGI (SK-MEL-28 melanoma) | TGI (SN12C renal) [µM] | TGI (SNB-75 CNS) [µM] | GI50 (HCT-116 colon) [µM] | GI50 (K-562 leukemia) | GI50 (LOX IMVI melanoma) | GI50 (NCI-H522 lung) | GI50 (OVCAR-3 ovarian) [µM] | GI50 (SF-268 CNS) [µM] | GI50 (SK-MEL-28 melanoma) [µM] | GI50 (SN12C renal) | GI50 (SNB-75 CNS)
COc1nc(N)nc2c1n(C)c[n+]2C | > 100 µM | > 100 | > 100 µM | > 100 | > 100 | > 100 µM | > 100 | > 100 µM | > 100 µM | > 100 | > 100 | – | – | – | – | – | – | – | – | –
Cc1ccc(/C(O)=C/c2nc3ccccc3nc2NC23CC4CC(CC(C4)C2)C3)cc1 | > 10 µM | > 10 | > 10 µM | > 10 | > 10 | > 10 µM | > 10 | > 10 µM | > 10 µM | > 10 | > 10 | – | – | – | – | – | – | – | – | –
CC(C)/C(Cl)=N/OC(NC(=O)Nc1ccc(Cl)c(Cl)c1)(C(F)(F)F)C(F)(F)F | 19.7 µM | 8.86 | 14.7 µM | 34.2 | 3.31 | 11.3 µM | 39.4 | 33.2 µM | 35.3 µM | 33.9 | 31.3 | – | – | – | – | – | – | – | – | –
CN(C)c1ccc(/C=C(\NC(=O)c2ccccc2)c2nc3ccccc3c(=O)o2)cc1 | > 100 µM | > 100 | > 100 µM | > 100 | > 100 | > 100 µM | > 100 | > 100 µM | > 100 µM | > 100 | > 100 | – | – | – | – | – | – | – | – | –
CC(=O)O[C@H]1CC[C@@]2(C)C(=CC[C@H]3[C@@H]4C[C@H](N5CCN(C)CC5)[C@H](OC(C)=O)[C@@]4(C)CC[C@@H]32)C1 | 25.7 µM | 4.07 | 7.83 µM | 34.3 | 34.9 | 21.5 µM | 42.7 | 13.7 µM | 26.1 µM | 67.8 | 62.6 | – | – | – | – | – | – | – | – | –
CCOC(=O)NC(Nc1cccc(F)c1)(C(F)(F)F)C(F)(F)F | > 100 µM | > 100 | > 100 µM | > 100 | > 100 | > 100 µM | > 100 | > 100 µM | > 100 µM | > 100 | > 100 | – | – | – | – | – | – | – | – | –
COC(=O)C1=C(C(=O)OC)C2(c3ccccc3)c3ccccc3C(=O)C1N2C1CCCCC1 (stereo not drawn) | > 100 µM | > 100 | > 100 µM | > 100 | > 100 | > 100 µM | > 100 | > 100 µM | > 100 µM | > 100 | > 100 | – | – | – | – | – | – | – | – | –
COC(=O)C1C(O)C(C)C(O)C(C)/C=C\C=C(C)C(=O)Nc2c(C)c(OC(C)=O)c3c(c2O)C(=O)C(C)=C2OCOC(=C23)C(C)=CC(C)(O)C(O)C(C)C1O (stereo not drawn) | 49.6 µM and > 100 µM | > 100 | 41 µM and > 100 µM | > 100 | > 100 | > 72 µM and 64.2 µM | > 100 | 74.3 µM and > 100 µM | 44.7 µM and > 100 µM | > 100 | > 100 | 20.3 | 28.3 µM and > 100 µM | 17.9 µM and 41.3 µM | 23.4 µM and 74.2 µM | 37.8 | 39.4 | 21.7 | 49 µM and > 100 µM | 35.3 µM and 5.07 µM
COc1ccc(/C=C/C(=O)c2cccc(C(=O)/C=C/c3ccc(OC)c(OC)c3)n2)cc1OC | 27.6 µM | > 100 | 10.6 µM | 70.6 | 23.1 | > 100 µM | > 89.3 | 38.4 µM | 45 µM | 30.1 | > 100 | – | – | – | – | – | – | – | – | –
